# Test results: US4550186A, “Binuclear copper (II) carboxylates formed from amine-carboxyboranes” (Duke University, priority 1983, dated 1985)
# How the values were obtained:
# [1] = tested on: Ehrlich ascites lysate protein synthesis; assay: Initiation/elongation of Ehrlich ascites lysate protein synthesis; format: biochemical, mouse; conditions: compared with pyrocatechol violet and emetine
# Procedure: An in vitro method was used to determine if compound I was an initiation or an elongation inhibitor of Ehrlich ascites lysate protein synthesis by comparing inhibition with known standards, pyrocateochol violet and emetine, using 1 μCi ^3 H-leucine (24.7 Ci/mmol). The reaction medium was spotted on Whatman #1 filter paper disks, which after drying were treated for 10 min in boiling 5% trichloroacetic acid, for 10 min in cold 5% trichloroacetic acid and washed with cold 5% trichloroacetic acid, ether/ethanol (4:1) and ether. The disks were dried and counted.
# [2] = target: T1, carbamyl phosphate synthetase (Mus musculus, UniProt B2RQC6); assay: In vivo carbamyl phosphate synthetase activity
# T1 construct: CPSase II domain of CAD; ornithine transcarbamylase used as coupling enzyme
# Procedure: (§1) CF1 male mice (~30 g) were implanted with 2×10^6 Ehrlich ascites tumor cells, intraperitoneally on Day 0. Compound I was suspended by homogenation in 0.05% polysorbate.80-water and administered intraperitoneally at 10 and 20 mg/kg for 9 days to determine its effectiveness for inhibition of tumor growth. Mice were sacrificed on Day 10, and the ascites fluid was collected from the peritoneal cavity. The volume and ascrit (packed cell volume) were determined for each animal and the percent inhibition of tumor growth was calculated. For the metabolic studies, mice were treated on Days 8 and 9 with 10 mg/kg of Compound I, intraperitoneally. […]
# (§2) Carbamyl phosphate synthetase activity was determined using the reaction medium of Kalman et al [Am. […] Citrulline formed from ornithine was measured at 490 nm by the method of Archibald [J. Biol. Chem., 156, 121 (1944)]. […] The ^14 CO2 generated in 15 min was trapped in 1M KOH and counted. Thymidylate synthetase activity was determined using a post-mitochondrial supernatant (9000 g×10 min) and 5 μCi of 5-^3 H-deoxyuridine monophosphate (14 Ci/mmol) according to the method of Kampf et al [ J. Med. Chem., 19, 903 (1976)]. ^14 C-Formate incorporation into purines was determined by the method of Spassova et al [Biochem. Pharmacol., 25, 923 (1976)] using 0.5 μCi of ^14 C-formic acid (52.0 mCi/mmol). […] The Rf value for xanthine monophosphate was scraped and counted. […]
# ribonucleotide reductase = target: T2, ribonucleotide reductase (Mus musculus, UniProt P07742+P11157); assay: In vitro ribonucleotide reductase activity; format: biochemical; conditions: 0.25 to 1.0 mM
# T2 construct: endogenous in cells; host or cells: Ehrlich ascites tumor cells
# T2 sequence (P07742 1-792): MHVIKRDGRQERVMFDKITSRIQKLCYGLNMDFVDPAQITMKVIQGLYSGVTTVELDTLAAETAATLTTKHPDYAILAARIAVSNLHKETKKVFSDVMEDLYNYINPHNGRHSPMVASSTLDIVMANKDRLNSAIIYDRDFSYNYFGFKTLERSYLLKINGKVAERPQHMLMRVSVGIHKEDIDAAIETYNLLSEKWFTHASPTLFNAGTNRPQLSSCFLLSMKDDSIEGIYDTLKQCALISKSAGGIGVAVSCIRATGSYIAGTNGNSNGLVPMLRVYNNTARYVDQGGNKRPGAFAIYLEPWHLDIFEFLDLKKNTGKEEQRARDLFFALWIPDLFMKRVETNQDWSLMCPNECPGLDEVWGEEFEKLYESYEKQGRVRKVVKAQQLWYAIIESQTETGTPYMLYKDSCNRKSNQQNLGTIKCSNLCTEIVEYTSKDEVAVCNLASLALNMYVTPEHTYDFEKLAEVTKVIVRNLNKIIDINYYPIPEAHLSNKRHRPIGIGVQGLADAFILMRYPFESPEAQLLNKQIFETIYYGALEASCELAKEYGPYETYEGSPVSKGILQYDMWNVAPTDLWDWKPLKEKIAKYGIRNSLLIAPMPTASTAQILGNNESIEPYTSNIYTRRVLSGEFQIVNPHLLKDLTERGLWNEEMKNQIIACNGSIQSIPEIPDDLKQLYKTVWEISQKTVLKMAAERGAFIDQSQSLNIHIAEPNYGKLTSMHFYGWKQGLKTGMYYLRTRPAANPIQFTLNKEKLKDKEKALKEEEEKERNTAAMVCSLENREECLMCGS
# T2 sequence (P11157 1-390): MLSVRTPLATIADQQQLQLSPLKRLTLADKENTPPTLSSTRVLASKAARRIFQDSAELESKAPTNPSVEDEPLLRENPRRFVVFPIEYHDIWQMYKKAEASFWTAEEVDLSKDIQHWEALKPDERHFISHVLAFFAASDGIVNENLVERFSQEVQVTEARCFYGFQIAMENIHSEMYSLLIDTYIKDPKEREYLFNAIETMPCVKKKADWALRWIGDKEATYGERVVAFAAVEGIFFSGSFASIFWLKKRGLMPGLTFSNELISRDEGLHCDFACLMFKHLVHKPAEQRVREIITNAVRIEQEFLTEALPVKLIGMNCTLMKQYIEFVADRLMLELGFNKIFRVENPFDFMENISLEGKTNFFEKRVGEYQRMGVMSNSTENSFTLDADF
# Procedure: as §1, §2
# T1 sequence (B2RQC6 2-2225): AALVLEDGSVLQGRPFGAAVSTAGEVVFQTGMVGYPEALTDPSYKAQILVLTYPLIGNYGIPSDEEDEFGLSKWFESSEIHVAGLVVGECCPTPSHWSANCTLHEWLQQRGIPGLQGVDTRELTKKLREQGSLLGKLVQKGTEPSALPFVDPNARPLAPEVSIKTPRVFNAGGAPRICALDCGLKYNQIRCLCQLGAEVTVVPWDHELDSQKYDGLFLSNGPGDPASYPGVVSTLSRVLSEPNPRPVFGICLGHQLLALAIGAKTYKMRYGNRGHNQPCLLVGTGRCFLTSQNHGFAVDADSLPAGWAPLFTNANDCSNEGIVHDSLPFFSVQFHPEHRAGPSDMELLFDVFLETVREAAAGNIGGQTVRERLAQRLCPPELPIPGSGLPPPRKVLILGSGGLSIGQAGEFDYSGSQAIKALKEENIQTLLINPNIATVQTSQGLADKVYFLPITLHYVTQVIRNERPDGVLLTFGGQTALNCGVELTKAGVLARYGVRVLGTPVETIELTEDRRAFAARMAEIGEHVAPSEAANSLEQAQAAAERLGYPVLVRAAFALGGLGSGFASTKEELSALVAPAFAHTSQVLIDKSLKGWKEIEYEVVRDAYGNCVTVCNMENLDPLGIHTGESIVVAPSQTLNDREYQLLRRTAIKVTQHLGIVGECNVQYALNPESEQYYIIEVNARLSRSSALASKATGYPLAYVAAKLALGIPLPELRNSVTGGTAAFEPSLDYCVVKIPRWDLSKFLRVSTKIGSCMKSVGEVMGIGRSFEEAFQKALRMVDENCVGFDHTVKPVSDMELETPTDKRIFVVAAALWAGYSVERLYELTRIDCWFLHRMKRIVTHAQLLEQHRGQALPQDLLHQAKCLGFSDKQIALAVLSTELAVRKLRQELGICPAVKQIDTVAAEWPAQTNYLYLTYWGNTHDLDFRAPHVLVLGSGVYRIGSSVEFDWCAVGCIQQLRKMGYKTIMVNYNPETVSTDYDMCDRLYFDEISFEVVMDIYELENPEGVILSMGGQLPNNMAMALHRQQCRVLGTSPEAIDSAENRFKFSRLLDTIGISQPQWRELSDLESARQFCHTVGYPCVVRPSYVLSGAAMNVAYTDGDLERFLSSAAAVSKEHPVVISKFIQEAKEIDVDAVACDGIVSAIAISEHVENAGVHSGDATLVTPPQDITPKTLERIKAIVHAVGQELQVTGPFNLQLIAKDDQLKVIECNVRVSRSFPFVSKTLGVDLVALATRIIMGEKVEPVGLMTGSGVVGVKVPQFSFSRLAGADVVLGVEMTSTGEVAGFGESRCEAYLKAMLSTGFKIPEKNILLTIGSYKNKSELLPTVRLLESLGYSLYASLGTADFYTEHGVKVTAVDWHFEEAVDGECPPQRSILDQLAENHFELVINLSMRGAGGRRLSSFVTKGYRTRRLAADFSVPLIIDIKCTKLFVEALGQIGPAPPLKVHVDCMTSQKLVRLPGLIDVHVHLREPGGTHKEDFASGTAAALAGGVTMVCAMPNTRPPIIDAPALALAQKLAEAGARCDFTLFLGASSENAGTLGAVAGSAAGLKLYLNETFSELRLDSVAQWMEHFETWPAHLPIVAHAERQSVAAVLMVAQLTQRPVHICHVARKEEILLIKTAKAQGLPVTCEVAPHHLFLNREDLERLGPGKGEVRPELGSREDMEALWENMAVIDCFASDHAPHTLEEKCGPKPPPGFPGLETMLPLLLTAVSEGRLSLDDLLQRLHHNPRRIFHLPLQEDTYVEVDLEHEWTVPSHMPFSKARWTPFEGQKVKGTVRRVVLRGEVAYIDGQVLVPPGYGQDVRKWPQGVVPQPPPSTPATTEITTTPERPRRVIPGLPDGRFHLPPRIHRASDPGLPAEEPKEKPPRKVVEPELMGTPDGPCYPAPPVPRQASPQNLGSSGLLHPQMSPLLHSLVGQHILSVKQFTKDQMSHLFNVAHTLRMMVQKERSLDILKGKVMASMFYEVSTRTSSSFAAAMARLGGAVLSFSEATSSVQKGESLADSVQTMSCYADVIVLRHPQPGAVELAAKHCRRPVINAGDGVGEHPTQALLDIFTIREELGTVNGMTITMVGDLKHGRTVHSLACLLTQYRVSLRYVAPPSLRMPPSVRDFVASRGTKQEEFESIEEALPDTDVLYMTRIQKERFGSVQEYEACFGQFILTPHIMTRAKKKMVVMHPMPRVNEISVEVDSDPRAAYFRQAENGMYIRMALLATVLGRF
substance,measurement,setting,value
{Cu[(CH3)3 N.BH2 CO2 ]2.(CH3)3 N.BH2 COOH} [Compound I],inhibition of protein synthesis of Ehrlich ascites lysates (initiation vs elongation),[1],lag of several minutes before inhibition is observed
same,Carbamyl phosphate synthetase activity reduced,[2],23%
same,Carbamyl phosphate synthetase activity,[2]; 10 mg/kg/day I.P. on Days 8 and 9,77 ± 8 % Control
same,ribonucleotide reductase inhibition,ribonucleotide reductase,not inhibited
